Reference: US20240115571A1, “COMBINATION THERAPY FOR TREATING ABNORMAL CELL GROWTH” (priority 2021, published 2024)

Test system: EGFR mutant H1975 osimertinib-resistant (Dell9/T790M/C797S) NSCLC model
Experiment: H1975 osimertinib-resistant xenograft tumor mouse study
Type: in vivo, Balb/c nude mice
Conditions: VS-6766 0.3 mg/kg PO QD; osimertinib 2.5 mg/kg QD
Description: EGFR mutant H1975 NSCLC tumor cells were obtained from ATCC, EGFR mutant H1975 osimertinib-resistant NSCLC tumor cells were generated by Wuxi AppTec, and Balb/c nude mice were obtained from Beijing Vital River Laboratory Animal Technology. Tumor challenge was initiated by subcutaneous inoculation of 5×10^6 tumor cell suspensions into the right flank of recipient mice.
Tumor sizes (mm^3) and body weights were measured 2 times per week for the duration of the study. At the time of routine monitoring, the animals were checked for any effects of tumor growth and treatments on normal behavior such as mobility, food and water consumption (by looking only), and body weight gain/loss, eye/hair matting and any other abnormal effect.

CNS(=O)(=O)Nc1nccc(Cc2c(C)c3ccc(Oc4ncccn4)cc3oc2=O)c1F [VS-6766]
survival compared to osimertinib single agent: increased
tumor growth inhibition compared to osimertinib single agent: increased tumor growth inhibition
